Results published in patent US20230201275A1 (priority 2020, published 2023).
Entries after “also recorded” stand apart in the source; their conditions may differ. Like-named read-outs stand apart in the source and are kept apart here.

Key:
hilA [1] = assay type: cell-based, Salmonella Typhimurium
[2] = test system: Salmonella SPI1 expression (sicA-GFP); assay type: in vivo, mice
HilD [3] = molecular target: T1, HilD (Salmonella typhimurium, UniProt P0CL08); assay type: cell-based; settings: lon mutant
hilA [4] = assay type: cell-based, Salmonella; settings: absence of lon, 20 μM
HilD [5] = molecular target: T1, HilD; assay type: binding
HilC = HilC (Salmonella typhimurium, UniProt P0CL09); assay type: binding
RtsA = assay type: binding, Salmonella
wild type HilD = wild type HilD (Salmonella typhimurium, UniProt P0CL08); assay type: cell-based; settings: 20 μM, wild type HilD strain
HilD mutant K293A = HilD mutant K293A (Salmonella typhimurium, UniProt P0CL08, K293A); assay type: cell-based; settings: 20 μM
HilD mutant K294A = HilD mutant K294A (Salmonella typhimurium, UniProt P0CL08, K294A); assay type: cell-based; settings: 20 μM
HilD mutant K294A, sequence (P0CL08 whole entry K294A, looked up): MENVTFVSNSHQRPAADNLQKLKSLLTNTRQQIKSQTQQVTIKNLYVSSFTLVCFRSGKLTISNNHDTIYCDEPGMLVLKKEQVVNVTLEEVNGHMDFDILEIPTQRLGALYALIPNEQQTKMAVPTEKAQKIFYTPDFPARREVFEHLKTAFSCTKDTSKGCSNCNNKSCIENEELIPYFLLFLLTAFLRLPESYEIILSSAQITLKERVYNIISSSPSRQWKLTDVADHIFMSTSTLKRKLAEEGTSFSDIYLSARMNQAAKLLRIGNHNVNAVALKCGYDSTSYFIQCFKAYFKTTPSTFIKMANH

HilD mutant K293A, sequence (P0CL08 whole entry K293A, looked up): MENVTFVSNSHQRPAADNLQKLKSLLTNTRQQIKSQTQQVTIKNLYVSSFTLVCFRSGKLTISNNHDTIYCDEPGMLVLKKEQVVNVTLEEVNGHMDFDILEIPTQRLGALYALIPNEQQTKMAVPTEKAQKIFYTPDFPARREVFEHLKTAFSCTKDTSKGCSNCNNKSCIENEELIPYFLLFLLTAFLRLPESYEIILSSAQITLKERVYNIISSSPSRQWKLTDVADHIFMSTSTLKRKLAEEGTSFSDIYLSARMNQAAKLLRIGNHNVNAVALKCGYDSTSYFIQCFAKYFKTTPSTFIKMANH
HilC, sequence (P0CL09 whole entry): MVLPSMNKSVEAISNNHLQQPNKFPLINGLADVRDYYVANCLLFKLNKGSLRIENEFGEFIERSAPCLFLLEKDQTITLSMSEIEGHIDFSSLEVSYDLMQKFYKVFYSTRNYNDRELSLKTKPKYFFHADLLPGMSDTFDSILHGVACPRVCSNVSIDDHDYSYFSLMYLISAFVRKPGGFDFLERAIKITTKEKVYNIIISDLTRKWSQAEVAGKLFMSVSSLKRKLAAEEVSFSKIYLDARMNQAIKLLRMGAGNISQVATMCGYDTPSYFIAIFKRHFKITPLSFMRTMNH
T1 sequence (P0CL08 whole entry): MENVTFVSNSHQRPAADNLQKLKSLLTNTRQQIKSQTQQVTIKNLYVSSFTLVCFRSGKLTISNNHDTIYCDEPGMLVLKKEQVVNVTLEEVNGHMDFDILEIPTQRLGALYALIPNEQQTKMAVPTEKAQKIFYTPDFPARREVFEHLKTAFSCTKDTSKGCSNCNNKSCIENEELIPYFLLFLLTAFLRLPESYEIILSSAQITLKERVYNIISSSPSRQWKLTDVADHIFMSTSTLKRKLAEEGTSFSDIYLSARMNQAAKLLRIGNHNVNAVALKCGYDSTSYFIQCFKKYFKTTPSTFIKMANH
wild type HilD, sequence (P0CL08 whole entry): as above

Compound	hilA (invasion gene) expression (hilA [1])	percentage of Salmonella expressing SPI in the gut ([2]; mice n=5/group, P<0.01 vs control)	reduction of percentage of bacteria expressing an invasion gene in the caecum ([2]; mice, 1.5 mM in drinking water, hilD UTR A25G strain) [fold]	effect on HilD stability (HilD [3])	hilA expression (hilA [4])	binding of HilD to hilA promoter (HilD [5]; 20 μM, 10 nM DNA, 150 μM protein)	binding of HilD to hilA promoter (HilD [5]; 20 μM, 10 nM DNA, 150 μM protein, listed as cis-2-hexadecenoic acid)	binding of HilD to hilA promoter (HilD [5]; 1, 2, 5 and 10 μM)	binding of HilD to hilA promoter (HilD [5]; 1, 2, 5 and 10 μM, listed as cis-2-hexadecenoic acid)	binding of HilC to hilA promoter (HilC; 100 μM)	binding of HilC to hilA promoter (HilC; 100 μM, listed as cis-2-hexadecenoic acid)	binding of HilC to hilA promoter (HilC; 10, 25, 50 and 75 μM)	binding of HilC to hilA promoter (HilC; 10, 25, 50 and 75 μM, listed as cis-2-hexadecenoic acid)	binding of RtsA to hilA promoter (RtsA)	reduction of sipB expression (wild type HilD) [fold]	reduction of sipB expression (HilD mutant K293A)	reduction of sipB expression (HilD mutant K294A)
CCCCCCCCCCCCC/C=C\C(=O)O [2-cis-hexadecenoic acid, (Z)-hexadec-2-enoic acid]	reduced expression to a lesser degree	reduces the percentage	2	no effect	continued to repress	prevented the binding	completely inhibited from binding	partially inhibited binding	did so partially	preventing binding	prevented binding	partially inhibited binding	did so partially	preventing binding; also recorded: partially inhibited binding; also recorded: prevented binding; also recorded: did so partially	~11	No significant repression	No significant repression
CCCCCCCCC/C=C\C(=O)O [2-cis-dodecenoic acid, (Z)-dodec-2-enoic acid]	reduced expression to a lesser degree	–	–	–	–	–	–	–	–	–	–	–	–	–	4.1	no significant reduction	no significant reduction
CCCCCCCCCCCCC/C=C/C(=O)O [2-trans-hexadecenoic acid, reference compound]	–	–	–	–	–	–	–	–	–	–	–	–	–	–	5.2	4.7 fold	4.5 fold
